The numbers were not newly measured in patent US20070031352A1, “Powdery preparations containing diethylamino-hydroxybenzoyl-hexyl-benzoate” (BASF Aktiengesellschaft, priority 2003, published 2007), which cites them from elsewhere.

The conditions of this data set: at 354 nm.

Take `CCCCCCOC(=O)c1ccccc1C(=O)c1ccc(N(CC)CC)cc1O` [Uvinul® A Plus, diethylamino hydroxybenzoyl hexyl benzoate]: the absorbance coefficient is given as 940.
